Experimental data published in PMC8875392, “Design and Characterization of Myristoylated and Non-Myristoylated Peptides Effective against Candida spp. Clinical Isolates” (International Journal of Molecular Sciences, 2022).
Converted amounts (≈) assume the structure as drawn. Where two headings read alike, the source gives them in different places. Where a SMILES comes first, the peptide text is derived from it. The star is where a group is joined. Myristoyl = CCCCCCCCCCCCCC(=O)*

Assays:
[1] = tested on: C. auris clinical isolates; type: cell-based, Candida auris; settings: for MIC: CLSI broth microdilution, RPMI 1640
Description: (§1) The antifungal activity of AMPs was determined against 50 clinical isolates, 10 for each of the following Candida species: C. albicans, C. tropicalis, C. glabrata, C. parapsilosis, and C. auris. The latter were derived from patients with positive blood cultures in four hospitals in India, with known resistance profiles to fluconazole, voriconazole, and echinocandins. Yeast cells were grown in Brain Heart Infusion (BHI) medium (Sigma-Aldrich, Gillingham, UK) for 16 h at 37 °C in a 150-rpm orbital shaker. Cells were then sub-inoculated in a fresh BHI medium and grown to an optical density (OD) of 0.3. The turbidity of the inoculum was adjusted to 0.5 McFarland and diluted 1:500 in RPMI 1640 broth, corresponding to around […].
(§2) Minimal inhibitory concentrations (MICs) were determined by Broth microdilution susceptibility tests, according to The Clinical and Laboratory Standards Institute (CLSI) international guidelines. A fungal suspension of 0.5 MacFarland was diluted 1:500 in RPMI 1640 broth and incubated in 96 multi-well plates containing AMPs at different concentrations ranging from 0.125 to 256 μg/mL. In this range of concentration, lipopeptides were completely soluble. […] The MIC90 represents the value at which ≥90% of the strains within a test population were inhibited.

[2] = tested on: C. glabrata clinical isolates; type: cell-based, Candida glabrata; settings: 16 h
Description: as §1, §2

[3] = Membrane partition, Trp-1 fluorescence upon titration with LUVs; type: binding; settings: for KX (mole fraction partition constant): peptide 1.0 μM, 20 mM phosphate pH 7.4, 150 mM NaCl, 0.8 mM EDTA, 298 K, Trp fluorescence, quadruplicate; for ΔG: ΔG = −RT lnKx
Description: To quantify the interaction of different lipidated and non-lipidated peptides with membrane mimetic systems, we measured the intrinsic fluorescence of Trp-1 upon partition with LUVs (large unilamellar vesicles) of different compositions. Briefly, the mixtures of POPC/POPG (70%/30% w/w) LUVs were used to mimic anionic membranes and POPC only to mimic zwitterionic membranes. […] The mole fraction partition constants Kx were calculated from the partition isotherms as previously described. Figure 2 reports the partition isotherms for the titration of myristoylated and non-myristoylated peptides with POPC and POPC/POPG vesicles.
The values of Kx for all peptides are reported in Table 2 together with ΔG values, calculated using the expression ΔG = −RT lnKx, and the selectivity ratio defined as the ratio between partition constants determined in anionic and zwitterionic membranes. Higher values of the selectivity ratio represent a preference of the peptide for anionic vesicles, while lower values indicate a preference for the zwitterionic one.
The lipids POPC (1-palmitoyl-2-oleoyl-sn-glycero-3-phosphocholine) and POPG (1-palmitoyl-2-oleoyl-sn-glycero-3-phosphoglycerol) were purchased from Avanti Polar Lipids (Alabaster, AL, USA) and used without further purification. LUVs (Large Unilamellar Vesicles) were prepared as previously reported. Briefly, appropriate amounts of lipids were dissolved in chloroform/methanol 9:1. The solvent was then removed by rotary evaporation and samples were placed overnight under a high vacuum. The lipid film was then hydrated by adding 1 mL of buffer (20 mM phosphate buffer at pH 7.4 with 150 mM NaCl and 0.8 mM EDTA) and then subjected to 5 freeze–thaw cycles and vortexed. The multilamellar vesicles (MLVS) were extruded through a polycarbonate membrane with pores of 100 nm by an Avanti polar mini extruder, and the obtained LUVs were used within 48 h of preparation. LUVs were composed of 100% POPC and a 70%/30% (w/w) combination of POPC/POPG. The final concentration of the lipid was 10 mM.
All the steady-state fluorescence measurements were carried out using a Perkin Elmer LS55 fluorescence spectrophotometer. All the experiments were conducted at 298 K in a thermostatic cell holder and in 20 mM phosphate buffer at pH 7.4 containing 0.8 mM EDTA and 150 mM NaCl unless otherwise specified.
Since all peptides contain tryptophan, fluorescence spectroscopy is an appropriate tool for studying these molecules. Peptide partitioning between buffer and lipid vesicles was monitored by measuring the increase in tryptophan fluorescence upon the addition of LUVs. Trp fluorescence spectra were recorded with λexc = 295 nm and scanning the emission between 305 and 400 nm. Measurements were carried out with a cross-oriented configuration of polarizers (polem = 0° and polexc = 90°). Briefly, a 1.0 μM solution of the peptide was titrated with LUVs of different compositions (POPC 100% and 70%/30% POPC/POPG) as previously described. The background effects of vesicles and buffer were subtracted from each spectrum. All the fluorescence emissions were corrected for dilution. Mole fraction partition coefficients Kx were calculated from the fraction of the partitioned peptide fp as previously described. The fraction of the partitioned peptide fp is given by the following equation [53] (6) fp=Kx[L]/[W]+Kx[L] where Kx is the mole fraction partition constant, and [L] and [W] are the molar concentrations of lipids and water, respectively.

[4] = tested on: C. albicans clinical isolates; type: cell-based, Candida albicans; settings: 16 h
Description: as §1, §2

[5] = tested on: C. tropicalis clinical isolates; type: cell-based, Candida tropicalis; settings: for MIC: CLSI broth microdilution, RPMI 1640
Description: as §1, §2

[6] = tested on: C. parapsilosis clinical isolates; type: cell-based, Candida parapsilosis
Description: as §1, §2

Question: What does the source list for `CCCCCCCCCCCCCC(=O)N[C@@H](Cc1c[nH]c2ccccc12)C(=O)N[C@@H](Cc1ccccc1)C(=O)NCC(=O)N[C@@H](CCCCN)C(=O)N[C@@H](CC(C)C)C(=O)N[C@@H](Cc1ccc(O)cc1)C(=O)N[C@@H](CCCNC(=N)N)C(=O)NCC(=O)N[C@H](C(=O)N[C@H](C(=O)N[C@@H](CCCCN)C(=O)O)[C@@H](C)O)[C@@H](C)CC` [Myr-A] (Myristoyl-WFGKLYRGITK-OH; C-terminus assumed)?
Answer: MIC90 ([1]; clinical isolates, 16 h): >256 µg/mL; MIC ([1]; isolate Candida Auris 1): > 256 µg/mL; MIC ([1]; isolate Candida Auris 2): > 256 µg/mL; MIC ([1]; isolate Candida Auris 3): > 256 µg/mL; MIC ([1]; isolate Candida Auris 4): > 256 µg/mL; MIC ([1]; isolate Candida Auris 5): > 256 µg/mL; MIC ([1]; isolate Candida Auris 6): > 256 µg/mL; MIC ([1]; isolate Candida Auris 7): > 256 µg/mL; MIC ([1]; isolate Candida Auris 8): > 256 µg/mL; MIC ([1]; isolate Candida Auris 9): > 256 µg/mL; MIC ([1]; isolate Candida Auris 10): > 256 µg/mL; MIC [2]: 16 µg/mL (≈ 10.1 µM); MIC90 [2]: 16 µg/mL (≈ 10.1 µM); KX (mole fraction partition constant) ([3]; POPC LUVs): (1.03 ± 0.04) × 10^5; ΔG ([3]; POPC LUVs): -6.831 kcal/mol; KX (mole fraction partition constant) ([3]; POPC/POPG 70%/30% LUVs): (4.3 ± 0.8) × 10^5; ΔG ([3]; POPC/POPG LUVs): -7.684 kcal/mol; Selectivity Ratio ([3]; ratio between partition constants in anionic (POPC/POPG) and zwitterionic (POPC) membranes): 4.17; MIC90 [4]: 16 µg/mL (≈ 10.1 µM); MIC (Range) [4]: 8 to 16 µg/mL; MIC90 ([5]; clinical isolates, 16 h): 16 µg/mL (≈ 10.1 µM); MIC ([5]; isolate Candida tropicalis 1): 16 µg/mL (≈ 10.1 µM); MIC ([5]; isolate Candida tropicalis 2): 16 µg/mL (≈ 10.1 µM); MIC ([5]; isolate Candida tropicalis 3): 16 µg/mL (≈ 10.1 µM); MIC ([5]; isolate Candida tropicalis 4): 16 µg/mL (≈ 10.1 µM); MIC ([5]; isolate Candida tropicalis 5): 16 µg/mL (≈ 10.1 µM); MIC ([5]; isolate Candida tropicalis 6): 16 µg/mL (≈ 10.1 µM); MIC ([5]; isolate Candida tropicalis 7): 16 µg/mL (≈ 10.1 µM); MIC ([5]; isolate Candida tropicalis 8): 16 µg/mL (≈ 10.1 µM); MIC ([5]; isolate Candida tropicalis 9): 16 µg/mL (≈ 10.1 µM); MIC ([5]; isolate Candida tropicalis 10): 16 µg/mL (≈ 10.1 µM); MIC ([6]; clinical isolates, 16 h): 16 µg/mL (≈ 10.1 µM); MIC90 ([6]; clinical isolates, 16 h): 16 µg/mL (≈ 10.1 µM); MIC ([6]; isolate Candida parapsilosis 8, CLSI broth microdilution, RPMI 1640): 16 µg/mL (≈ 10.1 µM); MIC ([6]; isolate Candida parapsilosis 9, CLSI broth microdilution, RPMI 1640): 16 µg/mL (≈ 10.1 µM); MIC ([6]; isolate Candida parapsilosis 10, CLSI broth microdilution, RPMI 1640): 16 µg/mL (≈ 10.1 µM)
